In general, IC50 refers to the concentration that gives 50% inhibition.

Where a name gives a salt, the structure may show the parent alone. Bounds are passed on as bounds.

What all share (format): biochemical
For test [1], the target named is T1, recombinant human MAO-A (monoamine oxidase-A) (Homo sapiens, UniProt P21397).
T1 construct: purchased Sigma-Aldrich
T1 sequence (P21397 1-527): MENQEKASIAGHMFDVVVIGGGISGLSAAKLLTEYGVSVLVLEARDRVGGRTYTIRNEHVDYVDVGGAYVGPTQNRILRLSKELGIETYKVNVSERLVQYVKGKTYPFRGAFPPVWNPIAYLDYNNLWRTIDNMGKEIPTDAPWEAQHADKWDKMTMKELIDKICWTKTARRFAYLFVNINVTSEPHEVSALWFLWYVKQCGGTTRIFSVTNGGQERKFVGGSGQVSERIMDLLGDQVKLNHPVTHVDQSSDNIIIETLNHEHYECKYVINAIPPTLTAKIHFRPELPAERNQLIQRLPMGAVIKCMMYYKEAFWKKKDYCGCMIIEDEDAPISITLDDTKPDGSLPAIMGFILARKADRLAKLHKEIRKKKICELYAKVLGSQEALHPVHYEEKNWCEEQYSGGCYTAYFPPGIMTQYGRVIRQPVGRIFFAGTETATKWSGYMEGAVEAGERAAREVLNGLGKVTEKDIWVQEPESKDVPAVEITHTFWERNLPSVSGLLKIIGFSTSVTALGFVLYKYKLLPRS
The experiment in a line: Activity on recombinant human MAO-A, method similar to the VAP-1 assay. To be noted: substrate 0.5 mM tyramine; read-out: Inhibitory Activity (IC50, nM) MAO-A. In outline:
(§1)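 Amplex Red/HRP coupled read-out of H2O2 with 0.5 mM tyramine for MAO-A or 1 mM benzylamine for MAO-B, following a 30-min compound–enzyme preincubation at 37° C. IC50 from percent inhibition of signal rate relative to uninhibited control.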

Test [2] concerns the target T2, recombinant human DAO (diamine oxidase) (Homo sapiens, UniProt P19801).
T2 construct: purchased R&D systems
T2 sequence (P19801 20-751): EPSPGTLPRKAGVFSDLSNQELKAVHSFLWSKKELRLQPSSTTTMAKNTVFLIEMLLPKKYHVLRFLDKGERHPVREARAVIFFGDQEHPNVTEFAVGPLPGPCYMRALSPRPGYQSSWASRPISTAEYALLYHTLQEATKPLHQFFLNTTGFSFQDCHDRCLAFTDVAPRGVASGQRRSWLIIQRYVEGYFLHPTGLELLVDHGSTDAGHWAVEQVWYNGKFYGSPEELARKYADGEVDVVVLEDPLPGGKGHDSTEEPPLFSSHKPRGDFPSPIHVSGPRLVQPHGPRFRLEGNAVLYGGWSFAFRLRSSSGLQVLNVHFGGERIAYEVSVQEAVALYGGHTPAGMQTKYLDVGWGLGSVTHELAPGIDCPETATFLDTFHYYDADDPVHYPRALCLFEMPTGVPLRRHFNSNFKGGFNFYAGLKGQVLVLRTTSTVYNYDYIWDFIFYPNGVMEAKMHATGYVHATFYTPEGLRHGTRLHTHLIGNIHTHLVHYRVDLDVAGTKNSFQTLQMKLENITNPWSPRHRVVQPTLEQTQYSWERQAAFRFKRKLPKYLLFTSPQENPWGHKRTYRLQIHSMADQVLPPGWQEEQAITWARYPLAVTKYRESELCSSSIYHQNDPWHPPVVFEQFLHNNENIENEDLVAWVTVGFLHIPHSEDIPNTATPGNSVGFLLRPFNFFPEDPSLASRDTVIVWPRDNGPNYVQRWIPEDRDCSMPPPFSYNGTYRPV
The experiment in a line: Activity on recombinant human DAO, method similar to the VAP-1 assay. Particulars: substrate 1 mM putrescine; read-out: Inhibitory Activity (IC50, nM) DAO. In outline: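 Inhibition of recombinant human diamine oxidase (DAO, R&D systems) was assessed by the same approach as the VAP-1 assay, using 1 mM putrescine as substrate. Hydrogen peroxide formed was detected through an HRP-coupled Amplex Red reaction yielding fluorescent resorufin, read at 544 nm excitation and 590 nm emission. IC50 values came from four-parameter logistic fitting in GraphPad Prism.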

Test [3] has as its target T3, recombinant human VAP-1 (Homo sapiens, UniProt Q16853).
T3 construct: purchased R&D systems
T3 sequence (Q16853 1-763): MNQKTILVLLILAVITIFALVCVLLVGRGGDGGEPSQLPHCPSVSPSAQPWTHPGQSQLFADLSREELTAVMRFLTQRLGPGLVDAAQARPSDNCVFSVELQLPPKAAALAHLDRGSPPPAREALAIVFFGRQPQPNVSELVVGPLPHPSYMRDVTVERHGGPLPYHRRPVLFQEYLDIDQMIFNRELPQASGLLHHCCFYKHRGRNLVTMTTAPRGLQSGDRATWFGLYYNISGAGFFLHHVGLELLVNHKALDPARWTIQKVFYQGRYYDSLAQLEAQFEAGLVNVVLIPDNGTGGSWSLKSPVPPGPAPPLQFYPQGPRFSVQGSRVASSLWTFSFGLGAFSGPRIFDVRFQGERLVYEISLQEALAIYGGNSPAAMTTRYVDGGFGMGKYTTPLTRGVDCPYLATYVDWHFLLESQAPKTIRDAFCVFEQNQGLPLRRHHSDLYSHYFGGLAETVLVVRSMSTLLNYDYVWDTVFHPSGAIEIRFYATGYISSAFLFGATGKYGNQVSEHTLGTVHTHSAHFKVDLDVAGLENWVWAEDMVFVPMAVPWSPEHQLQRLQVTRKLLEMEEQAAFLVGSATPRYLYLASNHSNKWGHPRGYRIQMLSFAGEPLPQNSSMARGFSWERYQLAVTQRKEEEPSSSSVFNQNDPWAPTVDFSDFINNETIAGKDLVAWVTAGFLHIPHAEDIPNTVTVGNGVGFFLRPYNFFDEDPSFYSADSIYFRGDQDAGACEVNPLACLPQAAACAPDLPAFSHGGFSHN
Nature of the test: Activity on recombinant human VAP-1, HRP-coupled Amplex Red hydrogen peroxide assay. Particulars: substrate 1 mM benzylamine; compound incubated with enzyme at 37° C. for 30 minutes; pH 7.4; read-out: Inhibitory Activity (IC50, nM) human VAP-1. In outline:
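Dose-response IC50 determined from reduction in resorufin signal rate (544/590 nm, 1-2 h), with 30 min compound preincubation at 37 °C and 1 mM benzylamine as substrate.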

Test [4] addresses T4, recombinant human MAO-B (monoamine oxidase-B) (Homo sapiens, UniProt P27338).
T4 construct: purchased Sigma-Aldrich
T4 sequence (P27338 1-520): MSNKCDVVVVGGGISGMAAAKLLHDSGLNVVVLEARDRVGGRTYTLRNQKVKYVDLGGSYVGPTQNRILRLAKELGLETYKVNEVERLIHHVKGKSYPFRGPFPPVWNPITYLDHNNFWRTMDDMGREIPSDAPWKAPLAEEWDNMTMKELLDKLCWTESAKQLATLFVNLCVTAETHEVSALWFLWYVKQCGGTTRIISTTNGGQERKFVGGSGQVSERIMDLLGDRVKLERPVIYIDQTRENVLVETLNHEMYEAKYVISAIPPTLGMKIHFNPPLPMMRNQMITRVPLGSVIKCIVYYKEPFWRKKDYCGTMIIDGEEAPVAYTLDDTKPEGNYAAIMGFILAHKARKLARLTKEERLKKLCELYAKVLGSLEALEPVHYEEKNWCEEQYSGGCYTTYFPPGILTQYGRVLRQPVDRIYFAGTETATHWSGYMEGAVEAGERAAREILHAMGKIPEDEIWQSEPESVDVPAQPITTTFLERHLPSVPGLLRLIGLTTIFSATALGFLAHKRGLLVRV
Nature of the test: Activity on recombinant human MAO-B, method similar to the VAP-1 assay. Particulars: substrate 1 mM benzylamine; read-out: Inhibitory Activity (IC50, nM) MAO-B. In outline: as §1

Take `COc1cc(-c2ccc(Cn3cnn(C/C(=C/F)CN)c3=O)s2)cnc1OC` [Example 178, 2-[(2E)-2-(aminomethyl)-3-fluoroprop-2-en-1-yl]-4-{[5-(5,6-dimethoxypyridin-3-yl)thiophen-2-yl]methyl}-2,4-dihydro-3H-1,2,4-triazol-3-one]: the IC50 in test [1] was more than 100000 nM; in test [2], 280 nM; in test [3], 0.8 nM; in test [4], 700 nM.
For `NC/C(=C\F)Cn1ncn(Cc2ccc(C#CCN3CCS(=O)(=O)CC3)s2)c1=O` [Example 132, 2-[(2E)-2-(aminomethyl)-3-fluoroprop-2-en-1-yl]-4-(5-[3-(1,1-dioxidothiomorpholin-4-yl)prop-1-yn-1-yl]thiophen-2-ylmethyl)-2,4-dihydro-3H-1,2,4-triazol-3-one hydrochloride] the same measures were more than 100000 nM, 1400 nM, 3.1 nM and 2500 nM.
With `COc1ccc(C#Cc2ccc(Cn3cnn(C/C(=C/F)CN)c3=O)s2)cc1` [Example 126, 2-[(2E)-2-(aminomethyl)-3-fluoroprop-2-en-1-yl]-4-(5-[(4-methoxyphenyl)ethynyl]thiophen-2-ylmethyl)-2,4-dihydro-3H-1,2,4-triazol-3-one hydrochloride], the IC50 in test [1] is 57000 nM; in test [2], 1000 nM; in test [3], 3.4 nM; in test [4] it was 250 nM.
For `COc1ccc(-c2ccc(Cn3cnn(C/C(=C/F)CN)c3=O)s2)cn1` [Example 45, 2-[(2E)-2-(aminomethyl)-3-fluoroprop-2-en-1-yl]-4-[5-(6-methoxypyridin-3-yl)thiophen-2-yl]methyl-2,4-dihydro-3H-1,2,4-triazol-3-one hydrochloride] the same measures were more than 100000 nM, 330 nM, 1.1 nM and 400 nM.
For `NC/C(=C\F)Cn1ncn(Cc2ccc(-c3ccc(F)c(F)c3)s2)c1=O` [Example 14, 2-[(2E)-2-(aminomethyl)-3-fluoroprop-2-en-1-yl]-4-[5-(3,4-difluorophenyl)thiophen-2-yl]methyl-2,4-dihydro-3H-1,2,4-triazol-3-one hydrochloride] the same measures were more than 100000 nM, 2400 nM, 6.5 nM and less than 100 nM.
For `N#Cc1ccc(-c2ccc(Cn3cnn(C/C(=C/F)CN)c3=O)s2)cn1` [Example 50, 5-[5-(1-[(2E)-2-(aminomethyl)-3-fluoroprop-2-en-1-yl]-5-oxo-1,5-dihydro-4H-1,2,4-triazol-4-ylmethyl)thiophen-2-yl]pyridine-2-carbonitrile hydrochloride] the same measures were more than 100000 nM, 360 nM, 0.5 nM and 3700 nM.
As to `NC/C(=C\F)Cn1ncn(Cc2ccc(-c3ccc(CCO)cc3)s2)c1=O` [Example 171, 2-[(2E)-2-(aminomethyl)-3-fluoroprop-2-en-1-yl]-4-({5-[4-(2-hydroxyethyl)phenyl]thiophen-2-yl}methyl)-2,4-dihydro-3H-1,2,4-triazol-3-one], the IC50 in test [1] is more than 100000 nM; in test [2] it was 16000 nM; in test [3], 2.4 nM; in test [4] it was 740 nM.
For `NC/C(=C\F)Cn1ncn(Cc2ccc(-c3ccc4c(c3)CCCN4)s2)c1=O` [Example 110, 2-[(2E)-2-(aminomethyl)-3-fluoroprop-2-en-1-yl]-4-[5-(1,2,3,4-tetrahydroquinolin-6-yl)thiophen-2-yl]methyl-2,4-dihydro-3H-1,2,4-triazol-3-one hydrochloride], the IC50 in test [1] worked out at 32000 nM; in test [2], 220 nM; in test [3] it was 0.9 nM; in test [4] it was 370 nM.
For `Cc1cc(-c2ccc(Cn3cnn(C/C(=C/F)CN)c3=O)s2)cc2ccc(=O)[nH]c12` [Example 78, 6-[5-[[1-[(E)-2-(aminomethyl)-3-fluoro-allyl]-5-oxo-1,2,4-triazol-4-yl]methyl]-2-thienyl]-8-methyl-1H-quinolin-2-one], in that order: more than 100000 nM, 630 nM, 0.2 nM and 4800 nM.
For `CS(=O)(=O)c1cccc(-c2ccc(Cn3cnn(C/C(=C/F)CN)c3=O)s2)c1` [Example 181, 2-[(2E)-2-(aminomethyl)-3-fluoroprop-2-en-1-yl]-4-({5-[3-(methylsulfonyl)phenyl]thiophen-2-yl}methyl)-2,4-dihydro-3H-1,2,4-triazol-3-one], the concentration for half-maximal inhibition (IC50) in test [1] was more than 100000 nM; in test [2] it was 760 nM; in test [3] it was 1.5 nM; in test [4], 250 nM.
